Assay results from patent US20080145313A1, “Compositions and Methods for the Treatment and Prevention of Neoplastic Disorders” (Genesis Research & Development Corporation Limited, priority 2006, published 2008).

What was measured:
[1] = test system: A549 cells; assay: Growth inhibition of siRNA-transfected A549 cells, SYBR Green I DNA content; format: cell-based, human; conditions: 10 nM siRNA, DNA content 96 hours after transfection; for Growth Inhibition in A549 cells by 10 nM siRNA: transporter gene targets
In short: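 Growth read-out: cellular DNA quantified with SYBR Green I (485/535 nm) 96 h after transfection, cells frozen, thawed and lysed in PBS/1% Triton X-100, pH 7. Cells (A549, 5×10^3 cells/cm^2) received 10 nM siRNA by RNAiMAX; non-specific siRNA served as control; triplicate wells averaged.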

[2] = test system: target transcript mRNA in A549 cells; assay: Level of mRNA of target transcript in A549 cells by quantitative RT-PCR (Tables 12 and 13); format: cell-based, human; conditions: 24 h post-transfection; for mRNA knockdown of transporter gene target transcript, 0.1 nM: 0.1 nM siRNA; for mRNA knockdown of transporter gene target transcript, 1 nM: 1 nM siRNA
In short: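 Target mRNA was measured by SYBR Green quantitative RT-PCR using random-primed cDNA, normalised to HPRT and Lamin. Samples came from A549 cells 24 h post-transfection with 0.1, 1.0 or 10 nM siRNA.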

Substance | Growth Inhibition in A549 cells by 10 nM siRNA [1] | mRNA knockdown of transporter gene target transcript, 0.1 nM [2] | mRNA knockdown of transporter gene target transcript, 1 nM [2] | Growth Inhibition in A549 cells [1]
SEQ ID NO: 4964: siRNA targeting ATP7A (chain 1 TAACCATCATATATATCATCAGCCC; chain 2 UAACCAUCAUAUAUAUCAUCAGCCC; chemistry not given here; one strand in two spellings) | − (no growth inhibition) | − (<50% mRNA knockdown) | − (<50% mRNA knockdown) | 
SEQ ID NO: 4929: siRNA targeting SLC25A10 (DIC) (chain 1 TAGGTCATCTGTCTGCACAGCGAGG; chain 2 UAGGUCAUCUGUCUGCACAGCGAGG; chemistry not given here; one strand in two spellings) | − (no growth inhibition) | − (<50% mRNA knockdown) | + (50-70% mRNA knockdown) | 
SEQ ID NO: 4958: siRNA targeting ATP6V1E1 (chain 1 AGGAATTGCCTTCTGCACTGCAGCC; chain 2 AGGAAUUGCCUUCUGCACUGCAGCC; chemistry not given here; one strand in two spellings) | − (no growth inhibition) | + (50-70% mRNA knockdown) |  | 
SEQ ID NO: 4918: siRNA targeting SLC23A2 (SVCT2) (chain 1 AATCCAAGCACAAAGAGGTTCCGGG; chain 2 AAUCCAAGCACAAAGAGGUUCCGGG; Antisense strand given in DNA and RNA notation, chemistry not given here; one strand in two spellings) | − (no growth inhibition) | ++ (70-90% mRNA knockdown) | ++ (70-90% mRNA knockdown) | 
SEQ ID NO: 4890: siRNA targeting SLC1A5 (ASCT2) (chain 1 TTTACGAAGTCCAAGGACTGCTGGC; chain 2 UUUACGAAGUCCAAGGACUGCUGGC; Antisense strand given in DNA and RNA notation, chemistry not given here; one strand in two spellings) | − (no growth inhibition) | ++ (70-90% mRNA knockdown) | ++ (70-90% mRNA knockdown) | 
SEQ ID NO: 4919: siRNA targeting SLC9A1 (NHE1) (chain 1 AAACTCCTCAAAGAGGTGATACAGG; chain 2 AAACUCCUCAAAGAGGUGAUACAGG; chemistry not given here; one strand in two spellings) | + (inhibits by at least 50%) | ++ (70-90% mRNA knockdown) | ++ (70-90% mRNA knockdown) | 
SEQ ID NO: 4911: siRNA targeting SLC5A6 (SMVT1) (chain 1 AATGACGGAGCATAGAGCACAACTC; chain 2 AAUGACGGAGCAUAGAGCACAACUC; Antisense strand given in DNA and RNA notation, chemistry not given here; one strand in two spellings) | − (no growth inhibition) | ++ (70-90% mRNA knockdown) | ++ (70-90% mRNA knockdown) | 
SEQ ID NO: 4952: siRNA targeting ATP6V1B2 (chain 1 TACAACAGGACCTCTGTCAATGGGT; chain 2 UACAACAGGACCUCUGUCAAUGGGU; chemistry not given here; one strand in two spellings) | − (no growth inhibition) | − (<50% mRNA knockdown) | + (50-70% mRNA knockdown) | 
SEQ ID NO: 4967: siRNA targeting ATP7B (chain 1 AATTCTGGTTAGCAGAAGATAAAGG; chain 2 AAUUCUGGUUAGCAGAAGAUAAAGG; chemistry not given here; one strand in two spellings) | + (inhibits by at least 50%) | − (<50% mRNA knockdown) | − (<50% mRNA knockdown) | 
SEQ ID NO: 4899: siRNA targeting SLC2A12 (GLUT12) (chain 1 TTAGCAAGGATGCTGAGGTCGTCTC; chain 2 UUAGCAAGGAUGCUGAGGUCGUCUC; Antisense strand given in DNA and RNA notation, chemistry not given here; one strand in two spellings) | − (no growth inhibition) | ++ (70-90% mRNA knockdown) | ++ (70-90% mRNA knockdown) | 
SEQ ID NO: 4906: siRNA targeting SLC7A11 (xCT) (chain 1 TAATGAGAAATTTCCCAGTAGCCGC; chain 2 UAAUGAGAAAUUUCCCAGUAGCCGC; Antisense strand given in DNA and RNA notation, chemistry not given here; one strand in two spellings) | − (no growth inhibition) | + (50-70% mRNA knockdown) | ++ (70-90% mRNA knockdown) | 
SEQ ID NO: 4901: siRNA targeting SLC7A5 (LAT1) (chain 1 AGCGTCATCACACACGTGAACACGA; chain 2 AGCGUCAUCACACACGUGAACACGA; Antisense strand given in DNA and RNA notation, chemistry not given here; one strand in two spellings) | − (no growth inhibition) | ++ (70-90% mRNA knockdown) | ++ (70-90% mRNA knockdown) | 
SEQ ID NO: 4954: siRNA targeting ATP6V1B2 (chain 1 TTTGGATTTCTTTACCAAACCAGCC; chain 2 UUUGGAUUUCUUUACCAAACCAGCC; chemistry not given here; one strand in two spellings) | − (no growth inhibition) | + (50-70% mRNA knockdown) | + (50-70% mRNA knockdown) | 
SEQ ID NO: 4912: siRNA targeting SLC5A6 (SMVT1) (chain 1 ACCAGTGTCTGGAACACATCTGTCC; chain 2 ACCAGUGUCUGGAACACAUCUGUCC; Antisense strand given in DNA and RNA notation, chemistry not given here; one strand in two spellings) | − (no growth inhibition) | + (50-70% mRNA knockdown) | + (50-70% mRNA knockdown) | 
SEQ ID NO: 4878: siRNA targeting IMPDH2 (chain 1 AAATTTGTGGATTGACCCTTTGTCC; chain 2 AAAUUUGUGGAUUGACCCUUUGUCC; Both strands are one antisense strand in DNA/RNA notation, chemistry not given here, further chemistry not given here; one strand in two spellings) |  |  |  | − (no growth inhibition with any siRNA)
SEQ ID NO: 4837: siRNA targeting DHFR (chain 1 TTTCAAAGTCTTGCATGATCCTTGT; chain 2 UUUCAAAGUCUUGCAUGAUCCUUGU; chemistry not given here; one strand in two spellings) |  |  |  | − (no growth inhibition with any siRNA)
SEQ ID NO: 4945: siRNA targeting ATP2B3 (PMCA3) (chain 1 AATGTGTCCATGATCAAGTTCACCC; chain 2 AAUGUGUCCAUGAUCAAGUUCACCC; chemistry not given here; one strand in two spellings) | + (inhibits by at least 50%) |  |  | 
SEQ ID NO: 5000: siRNA targeting UMPS (chain 1 GCTGTTGCAGCTAGCAGATGCTTTA; chain 2 GCUGUUGCAGCUAGCAGAUGCUUUA; chemistry not given here; one strand in two spellings) |  |  |  | − (no growth inhibition with any siRNA)
SEQ ID NO: 4812: siRNA targeting HK-II (chain 1 ATACTGGTCAACCTTCTGCACTTGG; chain 2 AUACUGGUCAACCUUCUGCACUUGG; chemistry not given here; one strand in two spellings) |  |  |  | − (no growth inhibition with any siRNA)
SEQ ID NO: 4866: siRNA targeting UQCRC2 (chain 1 ACACCAAGTCCAATCAAAGCCATTC; chain 2 ACACCAAGUCCAAUCAAAGCCAUUC; Both strands are one antisense strand in DNA/RNA notation, chemistry not given here, further chemistry not given here; one strand in two spellings) |  |  |  | − (no growth inhibition with any siRNA)
SEQ ID NO: 4845: siRNA targeting FLAD1 (chain 1 TTTGAGTGGAACTGAACAGCTGGGT; chain 2 UUUGAGUGGAACUGAACAGCUGGGU; chemistry not given here; one strand in two spellings) |  |  |  | + (inhibits by at least 50%)
